# Experimental data published in PubChem BioAssay (NCI).
#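 Cells were grown in 96-well plates and exposed to each compound for 48 hours at five concentrations; endpoints were interpolated linearly between bracketing concentrations, or set to the highest concentration if not reached. The concentration for 50% growth inhibition is given as GI50. Definition used: TGI = concentration required for complete inhibition of growth.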 Where a SMILES comes first, the peptide text is derived from it.
# Legend:
# Assay in all cases: NCI tumour cell line growth inhibition, 48 h
# [1] = tested on: HOP-18 NSCLC
# [2] = tested on: P388/ADR leukemia
# [3] = tested on: P388 leukemia
# [4] = tested on: DMS 114 small cell lung
# [5] = tested on: SNB-78 CNS
# [6] = tested on: DLD-1 colon
# [7] = tested on: XF 498 CNS
# [8] = tested on: LXFL 529 NSCLC
# [9] = tested on: RXF-631 renal
smiles,measurement,setting,value
C=C1C(=O)O[C@@H]2[C@H]3O[C@]3(C)CCC=C(C)CC[C@@H]12,TGI,[1],28.3 µM
same,TGI,[2],27.9 µM
same,TGI,[3],175 µM
same,TGI,[4],165 µM
same,TGI,[5],62 µM
same,TGI,[6],28.4 µM
same,TGI,[7],32.4 µM
CC1NC(=O)CNC(=O)CNC(=O)C(Cc2ccc(O)cc2)NC(=O)C(C(C)C)NC(=O)C(C)NC1=O (stereo not given) (cyclo(GGAAVY); configuration not given here),TGI,[1],> 100 µM
same,TGI,[2],> 100 µM
same,TGI,[3],> 100 µM
same,TGI,[4],> 100 µM
same,GI50,[5],> 100 µM
same,TGI,[5],> 100 µM
same,TGI,[6],> 100 µM
same,TGI,[7],> 100 µM
CC1=C2C(O)C(C(C)C(=O)NCC(C)C)CCC2(C)C=CC1=O (stereo not given),TGI,[1],> 100 µM
same,TGI,[2],> 100 µM
same,TGI,[3],> 100 µM
same,TGI,[4],> 100 µM
same,TGI,[5],> 100 µM
same,TGI,[6],> 100 µM
same,TGI,[7],> 100 µM
CN(C)c1nc(N(C)C)nc(N(C)C)n1,TGI,[8],> 150 µM
same,TGI,[1],87.3 µM
same,TGI,[2],> 136 µM
same,TGI,[3],> 150 µM
same,TGI,[4],> 150 µM
same,TGI,[5],> 150 µM
same,TGI,[6],> 150 µM
same,TGI,[7],> 116 µM
NC(N)=NCCCC(N=c1c2ccccc2n(O)c2ccccc12)C(=O)O (stereo not given),TGI,[8],> 100 µM
same,TGI,[1],> 100 µM
same,TGI,[4],> 100 µM
same,TGI,[9],> 100 µM
same,TGI,[6],> 100 µM
